Tests used:
Conditions in all cases: 72 h
BV-173 [1] = tested on: BV-173
How it was run: (§1)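 Fifteen myeloid leukaemia lines in RPMI 1640 were treated for 72 h at 37 °C and 5% CO2 with five tenfold doses from 1 to 10,000 nM, in duplicate. ATP luminescence was normalised to vehicle and to a positive control at 10 µM, then fitted with a four-parameter log-logistic model. The IC50 came from these fits.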

HEL [2] = tested on: HEL
How it was run: as §1

HL-60 [3] = tested on: HL-60
How it was run: as §1

K-562 [4] = tested on: K-562
How it was run: as §1

KCL-22 [5] = tested on: KCL-22
How it was run: as §1

KG-1 [6] = tested on: KG-1
How it was run: as §1

KU-812 [7] = tested on: KU-812
How it was run: as §1

LAMA-84 [8] = tested on: LAMA-84
How it was run: as §1

ML-2 [9] = tested on: ML-2
How it was run: as §1

MOLM-13 [10] = tested on: MOLM-13
How it was run: as §1

MV4-11 [11] = tested on: MV4-11
How it was run: as §1

Mono-Mac-6 [12] = tested on: Mono-Mac-6
How it was run: as §1

NOMO-1 [13] = tested on: NOMO-1
How it was run: as §1

SHI-1 [14] = tested on: SHI-1
How it was run: as §1

THP-1 [15] = tested on: THP-1
How it was run: as §1

BV-173 [16] = experiment: cell viability (% survival relative to DMSO control, bortezomib = 0%); higher = less cytotoxic
How it was run: (§2)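 Reported values are percent survival from duplicate wells, averaged. Fifteen myeloid leukaemia cell lines were treated in 384-well plates with compounds at 1, 10, 100, 1000 or 10000 nM for 72 h at 37 °C in 5% CO2. Signals from CellTiter-Glo luminescence were scaled with vehicle as 100% and a 10 µM positive control as 0%.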

HEL [17] = experiment: as above
How it was run: as §2

HL-60 [18] = experiment: as above
How it was run: as §2

K-562 [19] = experiment: as above
How it was run: as §2

KCL-22 [20] = experiment: as above
How it was run: as §2

KG-1 [21] = experiment: as above
How it was run: as §2

KU-812 [22] = experiment: as above
How it was run: as §2

LAMA-84 [23] = experiment: as above
How it was run: as §2

ML-2 [24] = experiment: as above
How it was run: as §2

MOLM-13 [25] = experiment: as above
How it was run: as §2

MV4-11 [26] = experiment: as above
How it was run: as §2

Mono-Mac-6 [27] = experiment: as above
How it was run: as §2

NOMO-1 [28] = experiment: as above
How it was run: as §2

SHI-1 [29] = experiment: as above
How it was run: as §2

THP-1 [30] = experiment: as above
How it was run: as §2

With `CC(C)(O)CNc1nc(Nc2ccnc(C(F)(F)F)c2)nc(-c2cccc(C(F)(F)F)n2)n1` [Enasidenib] the “IC50 (cell viability)” value (BV-173 [1]) was over 10 µM, the “IC50 (cell viability)” value (HEL [2]) was over 10 µM and the “IC50 (cell viability)” value (HL-60 [3]) was over 10 µM. For the same compound, the “IC50 (cell viability)” value (K-562 [4]) was over 10 µM, the “IC50 (cell viability)” value (KCL-22 [5]) was over 10 µM and the “IC50 (cell viability)” value (KG-1 [6]) was over 10 µM. For the same compound, the “IC50 (cell viability)” value (KU-812 [7]) was over 10 µM, the “IC50 (cell viability)” value (LAMA-84 [8]) was over 10 µM and the “IC50 (cell viability)” value (ML-2 [9]) was over 10 µM. The “IC50 (cell viability)” value (MOLM-13 [10]) was over 10 µM, the “IC50 (cell viability)” value (MV4-11 [11]) was over 10 µM and the “IC50 (cell viability)” value (Mono-Mac-6 [12]) was over 10 µM. For the same compound, the “IC50 (cell viability)” value (NOMO-1 [13]) was over 10 µM, the “IC50 (cell viability)” value (SHI-1 [14]) was over 10 µM and the “IC50 (cell viability)” value (THP-1 [15]) was over 10 µM. The cell viability (BV-173 [16]; 1 nM) was 101%, the cell viability (BV-173 [16]; 10 nM) was 90.7% and the cell viability (BV-173 [16]; 100 nM) was 121%. It also gave a cell viability (BV-173 [16]; 1000 nM) of 98.4%, a cell viability (BV-173 [16]; 10000 nM) of 90% and a cell viability (HEL [17]; 1 nM) of 106%. For the same compound, the cell viability (HEL [17]; 10 nM) was 106%, the cell viability (HEL [17]; 100 nM) was 123% and the cell viability (HEL [17]; 1000 nM) was 111%. The cell viability (HEL [17]; 10000 nM) was 85.6%, the cell viability (HL-60 [18]; 1 nM) was 118% and the cell viability (HL-60 [18]; 10 nM) was 108%. It also gave a cell viability (HL-60 [18]; 100 nM) of 118%, a cell viability (HL-60 [18]; 1000 nM) of 99.1% and a cell viability (HL-60 [18]; 10000 nM) of 106%. For the same compound, the cell viability (K-562 [19]; 1 nM) was 93.1%, the cell viability (K-562 [19]; 10 nM) was 98.3% and the cell viability (K-562 [19]; 100 nM) was 98.3%. The cell viability (K-562 [19]; 1000 nM) was 95.2%, the cell viability (K-562 [19]; 10000 nM) was 82.5% and the cell viability (KCL-22 [20]; 1 nM) was 89.2%. For the same compound, the cell viability (KCL-22 [20]; 10 nM) was 102%, the cell viability (KCL-22 [20]; 100 nM) was 113% and the cell viability (KCL-22 [20]; 1000 nM) was 97.4%. The cell viability (KCL-22 [20]; 10000 nM) was 93.6%, the cell viability (KG-1 [21]; 1 nM) was 103% and the cell viability (KG-1 [21]; 10 nM) was 95%. For the same compound, the cell viability (KG-1 [21]; 100 nM) was 107%, the cell viability (KG-1 [21]; 1000 nM) was 92.8% and the cell viability (KG-1 [21]; 10000 nM) was 117%. For the same compound, the cell viability (KU-812 [22]; 1 nM) was 92.4%, the cell viability (KU-812 [22]; 10 nM) was 97.2% and the cell viability (KU-812 [22]; 100 nM) was 103%. The cell viability (KU-812 [22]; 1000 nM) was 90%, the cell viability (KU-812 [22]; 10000 nM) was 93.2% and the cell viability (LAMA-84 [23]; 1 nM) was 101%. It also gave a cell viability (LAMA-84 [23]; 10 nM) of 94.8%, a cell viability (LAMA-84 [23]; 100 nM) of 99.1% and a cell viability (LAMA-84 [23]; 1000 nM) of 104%. For the same compound, the cell viability (LAMA-84 [23]; 10000 nM) was 103%, the cell viability (ML-2 [24]; 1 nM) was 109% and the cell viability (ML-2 [24]; 10 nM) was 100%. The cell viability (ML-2 [24]; 100 nM) was 113%, the cell viability (ML-2 [24]; 1000 nM) was 97.3% and the cell viability (ML-2 [24]; 10000 nM) was 68.8%. It also gave a cell viability (MOLM-13 [25]; 1 nM) of 83.9%, a cell viability (MOLM-13 [25]; 10 nM) of 90.8% and a cell viability (MOLM-13 [25]; 100 nM) of 98.5%. For the same compound, the cell viability (MOLM-13 [25]; 1000 nM) was 101%, the cell viability (MOLM-13 [25]; 10000 nM) was 103% and the cell viability (MV4-11 [26]; 1 nM) was 101%. The cell viability (MV4-11 [26]; 10 nM) was 88.9%, the cell viability (MV4-11 [26]; 100 nM) was 112% and the cell viability (MV4-11 [26]; 1000 nM) was 103%. It also gave a cell viability (MV4-11 [26]; 10000 nM) of 81.1%, a cell viability (Mono-Mac-6 [27]; 1 nM) of 94.8% and a cell viability (Mono-Mac-6 [27]; 10 nM) of 100%. The cell viability (Mono-Mac-6 [27]; 100 nM) was 113%, the cell viability (Mono-Mac-6 [27]; 1000 nM) was 107% and the cell viability (Mono-Mac-6 [27]; 10000 nM) was 126%. It also gave a cell viability (NOMO-1 [28]; 1 nM) of 98.3%, a cell viability (NOMO-1 [28]; 10 nM) of 98.8% and a cell viability (NOMO-1 [28]; 100 nM) of 107%. For the same compound, the cell viability (NOMO-1 [28]; 1000 nM) was 93.6%, the cell viability (NOMO-1 [28]; 10000 nM) was 92.9% and the cell viability (SHI-1 [29]; 1 nM) was 109%. The cell viability (SHI-1 [29]; 10 nM) was 105%, the cell viability (SHI-1 [29]; 100 nM) was 114% and the cell viability (SHI-1 [29]; 1000 nM) was 113%. It also gave a cell viability (SHI-1 [29]; 10000 nM) of 109%, a cell viability (THP-1 [30]; 1 nM) of 101% and a cell viability (THP-1 [30]; 10 nM) of 103%. The cell viability (THP-1 [30]; 100 nM) was 114%, the cell viability (THP-1 [30]; 1000 nM) was 93.5% and the cell viability (THP-1 [30]; 10000 nM) was 97.5%.

Source: the supplement of paper PMC8671470
